The text below walks through data of a melting point compilation (Tetko et al.; mined from patent text by program, amines drawn as free bases though some values may be those of a salt).

As a reminder, the melting point is the temperature, or range, at which the solid turns liquid.

Residues, ends and D or L forms follow the SMILES beside them. *: point of attachment. Boc = CC(C)(C)OC(=O)*; Bn = c1ccc(C*)cc1

`COc1ccc(C=C2c3ccccc3C(=NOCC(=O)NCC(C)(C)SN=O)c3ccccc32)cc1O` yielded a melting point of 143 to 145 °C.
Turning to `CCOC(=O)C(=NNc1ccc(C)cc1C)C(C)=O`, the melting point fell in the range of 106 to 108 °C.
In the case of `COc1ccoc1C1OC(=O)NC1=O` (configuration not stated) it was 102 to 104 °C; in that of `O=C(O)C1(CCCCCCCCCCCCC2(C(F)F)CC2)CC1`, 54 to 54.8 °C.
With `O=C(Cn1c(-c2cc([N+](=O)[O-])cc([N+](=O)[O-])c2)ncc(NC(=O)OCc2ccccc2)c1=O)NC(Cc1ccccc1)C(=O)C(F)(F)F` (configuration not stated) the figure was 154 to 157 °C.
With `CNS(=O)(=O)c1cc2c(c(C(=O)NCC3CCN(C)C3)c1)OCCO2` (configuration not stated) the figure was 187 to 188 °C; with `CCOC(=O)N1Cc2cc(NN=C(C)C)nnc2C(C)C1` (configuration not stated), 140 to 142 °C.
Compound `COc1cc2c(cc1OCc1ccccc1)CCN(Cc1cc(F)cc(F)c1)C2` returned a melting point of 116 to 117 °C.
In turn, `CC(=O)OC1CSC(Sc2ccc(C#N)cc2C#N)C(OC(C)=O)C1OC(C)=O` (configuration not stated) registered a melting point of 228 °C.
As for `COc1ccc(C=Nc2cc(OC)c(OC)c(OC)c2)cc1O[Si](C)(C)C(C)(C)C`, the melting point was in the range of 90 to 91 °C.
In turn, `c1cc2c3c(c[nH]c3c1)CC1NCCCC21` (configuration not stated) came in with a melting point of 170 to 173 °C.
As for `CC(Cc1c[nH]c2ccccc12)(NC(=O)OC1C2CC3CC(C2)CC1C3)C(=O)NCCc1cnccn1` (configuration not stated), the melting point was 97 to 101 °C.
As to `Oc1cccc(CN2CCCC2)c1`, the melting point is 100 to 102 °C.
With `O=S(=O)(Nc1ccc(Cl)cc1I)c1ccc2ncsc2c1` the figure was 162 °C.
In the case of `Cc1oc(-c2ccccc2)nc1COc1cc(F)cc(CN(O)C(N)=O)c1` it was 157 to 158 °C.
Compound `O=C(O)c1ccc(F)cc1NC(=O)c1ccccc1C(=O)O` displayed a melting point of 187 to 188 °C.
With `CCC(=O)OC1C(=O)N(CCNC)c2ccc(C)cc2SC1c1ccc(C)cc1` (configuration not stated) the figure was 128 to 132 °C; with `C=CCC12CCC(=O)C1(C)CCC1c3ccc(OC)cc3CCC12` (configuration not stated), 75 to 77 °C; with `c1cc2c3c(c1)[C@H]1CCC[C@H]1N3CCNCC2` (relative stereo), above 130 °C.
With `COCCOCCn1cc(C(=O)NCc2ccc(Cl)cc2)c(=O)c2cc(CO)ccc21` the figure was 161 to 162 °C.
In turn, `Nc1c(-c2ccc(C(F)(F)F)cc2F)nnn1-c1ccc(O)cc1` came in with a melting point of 176 to 178 °C.
In the case of `COc1ccc(CN2C(=O)C(NC(=O)Nc3ccccc3)C(=O)N(CCC(C)C)c3ccccc32)cc1` (configuration not stated) it was 206 to 208 °C; in that of `Cc1cc(-n2nc(C(F)(F)F)cc2-c2ccc(S(C)(=O)=O)cc2)ccc1Br`, 127 to 129 °C.
As to `c1csc(-c2ccc3nncn3n2)c1`, the melting point is 155 to 159 °C.
In the case of `Brc1ccccc1Cc1nc(-c2ccncc2)cs1` it was 114 to 116 °C; in that of `CNC(=O)C#Cc1ccccc1C`, 52 to 55 °C.
Take `CN(Cc1ccc(COC(=O)NC(Cc2ccccc2)C(=O)O)cc1)c1ccccc1` (configuration not stated): the melting point lay within 69.6 to 70.1 °C.
In the case of `Cc1oc(-c2ccccc2)nc1COc1ccc(COc2nn(Cc3ccc(OCc4nc(-c5ccccc5)oc4C)cc3)cc2C=O)cc1` it was 155 to 156 °C.
In turn, `NCC(CCO)c1ccc(Cl)c(Cl)c1` (single isomer, unassigned; (+)) showed a melting point of 80 to 81 °C.
With `C#CCn1ccn(C)c1=O` the figure was 69 to 72 °C; with `COC(=O)C(CC(C)C)NC(=O)C(C)NC(=O)C(Cc1ccc(OCc2ccccc2)cc1)NC(=O)C(COCc1ccccc1)NC(=O)OC(C)(C)C` (configuration not stated) (Boc-S(Bn)Y(Bn)AL-OMe; configuration not given here), 67 to 71 °C; with `CCc1cc(Oc2ccc(S(C)(=O)=O)nc2)cc2cc(C3=NCC(CC(N)=O)S3)[nH]c12` (configuration not stated), 190 to 191 °C.
As to `COC(=O)c1cnc2n1CCc1ccccc1C2=C1CCN(CCc2ccc(OCc3ccc4ccccc4n3)cc2)CC1`, the melting point worked out at 179 °C.
As to `CCOC(=O)C1=C[C@H](NC(=O)OC(C)(C)C)[C@@H](NC(C)=O)[C@@H]2OC(C)(C)O[C@H]12`, the melting point lay within 174 to 175 °C.
In the case of `CC(C)(C)OC(=O)N1Cc2c(-c3noc(C4CC4)n3)ncn2-c2ccccc21` it was 204 °C; in that of `CCOC(=O)C(=O)Nc1cc(=O)c2ccccc2o1`, 167 to 169 °C.
With `O=S(=O)(Nc1ccc2c(OCc3nc4ccccc4s3)cccc2c1)C(F)(F)F` the figure was 190 to 192 °C; with `O=Cc1ccc(C(=O)Nc2ccc(C(F)(F)F)cc2)cc1`, 173 °C.
With `O=C1CCC(CCC(=O)OCc2ccccc2)N1` (configuration not stated) the figure was 79 to 80 °C; with `c1cc2c(cc1CCSSCCc1ccc3c(c1)OCO3)OCO2`, 76 to 78 °C.
In turn, `CC1Cc2cc(N3C[C@H](CO)OC3=O)ccc2N1C(=O)OCc1ccccc1` (some centres not stated) yielded a melting point of 144 to 145 °C.
In the case of `Cc1cc(=O)c(OCc2ccccc2)c(C(=O)NC2CCC2)n1C` it was 221 to 222 °C.
`CC(C)N1CC2(COc3ccc([N+](=O)[O-])cc3OC2)OC1=O` (configuration not stated): the melting point was 140 to 144 °C.
With `CC(=O)CC(=O)Nc1ccc(Br)cc1C` the figure was 109 °C.
As for `CONC(=N)c1nc(C)c(I)c(NCC(F)(F)F)n1`, the melting point lay within 150 to 152 °C.
For the compound `CCn1c2ccccc2c2cc3cccc(C=O)c3cc21`, the melting point is 130 to 133 °C.
In turn, `O=C(Oc1cccc2c(C(=O)c3ccc(F)cc3)c(-c3ccc(OCCN4CCCC4)cc3)sc12)c1ccc(F)cc1` had a melting point of 64 to 68 °C.
With `Cc1cc(NCc2ccccc2)c(N)c(Cl)n1` the figure was 177 to 178 °C.
With `O=C(Nc1cccnn1)N1CCN(c2nc(-c3cccc(F)c3F)cs2)CC1` the figure was 215 to 216 °C.
With `OCc1cc(N(c2ccccc2)c2ccccc2)c(CO)cc1N(c1ccccc1)c1ccccc1` the figure was 208 to 210 °C; with `O=C(O)CCCc1nc(-c2cccnc2)c(-c2ccccc2)s1`, 141 to 142 °C.
`COc1cccc(N2CCN(CCC(=O)O)CC2)c1`: the melting point is 180 to 183 °C.
In the case of `CN(CCCN)CCCNc1ccc2ncn3c4ccccc4c(=O)c1c23` it was 97 to 99 °C; in that of `NS(=O)(=O)c1cc2cc(O)cnc2s1`, 270 to 271 °C; in that of `Cc1ccc(Cl)cc1N1C(=O)CN(c2ccccc2)C1=S`, 168 to 170 °C.
Compound `Nc1ncc(CCN2CCC(C(=O)c3ccc(F)cc3)CC2)c(O)n1` returned a melting point of 256 °C.
Regarding `CCOC(=O)c1ccc(CCN2CCN(Cc3ccc(OC)cc3)CC2)cc1`, the melting point is 75 to 76 °C.
In the case of `CC(C)Cn1c(C(O)c2ccccc2)nc2cnc3ccccc3c21` (configuration not stated) it was 160 to 166 °C; in that of `CN1CC(CCCl)N(C)c2nc3ccccc3n2C1=O` (configuration not stated), 158 to 159 °C; in that of `COc1ccc(-c2nnc3c4ccccc4c(Nc4ccc(N)cc4)nn23)cc1`, 295 °C.
Compound `COc1cc(Cl)cc(OC(=O)c2cc3cc(CCl)ccc3oc2=O)c1` showed a melting point of 184 to 185 °C.
In the case of `Cc1ccc(-n2cnnc2C(F)(F)F)c(C)c1` it was 77 °C; in that of `O=c1cnn(-c2cc(Cl)c(Cc3ccc(Cl)cc3)c(Cl)c2)c(=O)[nH]1`, 175 to 176 °C.
In the case of `CCOC(=O)c1c(NCC(=O)c2ccc(C(F)(F)F)cc2)c2c(Cl)cc(Cl)cc2n1C(=O)OC(C)(C)C` it was 159 to 160 °C; in that of `O=C(Nc1ccccc1)NC1CCN(Cc2ccccc2)CC1`, 161 to 162 °C; in that of `COc1ccc(C2(O)CCCCC2=O)c(OC)c1OC` (configuration not stated), 88 to 91 °C.
In turn, `Cc1c(C(=O)Nc2ccc(N3CCN(C4CCOCC4)CC3)c(C#N)c2)cnn1-c1cccc(Cl)c1` returned a melting point of 230 °C.
In the case of `CC1(C)CC(=C(c2ccc(O)cc2)c2ccc(/C=C/C(=O)O)cc2)CC(C)(C)C1` it was 219 to 220 °C.
The compound `CCC(C)(O)C#Cc1ccc(C(CC2CCCC2)C(=O)O)cc1` (configuration not stated) showed a melting point of 91 to 94 °C.
For `O=S(=O)(C=Cc1ccc(F)cc1)Oc1ccccc1`, the melting point stood at 108 °C.
`Cc1cccc(C(=O)Nc2ccc(-c3ccc(-c4ccccc4Cl)n3Cc3cccc(N)n3)cc2)c1` displayed a melting point of 108 to 118 °C.
In the case of `CCOC(=O)C1=Cc2cc(-c3ccc(Cl)cc3)ccc2OCC1` it was 131 to 134 °C.
In the case of `N#CCNC(=O)c1ccc(Cl)cc1` it was 185 °C; in that of `Cn1nc(-n2ncc(C(N)=S)c2Br)c(Cl)c1OC(F)F`, 175 °C.
With `COc1ccc(CCCC2SC(=O)NC2=O)c2ccc(=O)n(C)c12` (configuration not stated) the figure was 172 to 175 °C.
As for `CC(C)(C)OC(=O)NCOc1ccccc1C(=O)OCC#N`, the melting point lay in the range of 144 to 146 °C.
`CN(c1ncc2ncnc(Nc3ccc(F)c(Cl)c3)c2n1)[C@H]1CC[C@H](N)CC1`: the melting point is 203 to 205 °C.
On to `COC1C=C(C)C(=O)CC(C)(C)C1OC(=O)c1ccc2nc[nH]c2c1` (configuration not stated), for which the melting point was in the range of 155 to 157 °C.
With `CCCCCCCCCCCCCCCCCCCCCCOc1ccc(C(=O)OCC)cc1` the figure was 56.5 to 59.5 °C.
In the case of `CS(=O)(=O)c1ccc(C(=O)O)c(Cl)c1C1=NOCC1` it was 145 to 146 °C; in that of `CN1CCN(c2ccc(CCCC(=O)N3CCC(c4ccc(Cl)cc4)CC3)cc2)CC1`, 119 to 120 °C; in that of `NC(=O)CC(O)(Cn1cncn1)C(F)(F)C(F)(F)C(F)(F)C(F)(F)F` (configuration not stated), 145 to 146 °C.
In turn, `CC(C)(C)OC(=O)Cn1c(C(=O)c2ccccc2)ccc1-c1ccccc1` came in with a melting point of 85 to 87 °C.
`CCCCNc1c(NCc2ccccc2)cc(C(=O)O)cc1S(N)(=O)=O` returned a melting point of 198 to 199 °C.
With `CNS(=O)(=O)Nc1ccc(OCC2CCN(c3ccncc3)CC2)cc1` the figure was 170 to 172 °C.
Regarding `COC(=O)N1CCC2=NNC(=O)CC2C1` (configuration not stated), the melting point was 163 to 165 °C.
In the case of `COc1cc(Nc2c(C#N)cnc3cc(-c4cc5ccccc5s4)ccc23)c(Cl)cc1Cl` it was 269 to 270 °C.
